Data reported in PubChem BioAssay (NCI).
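Following 48 hours of exposure in 96-well plates, responses at five concentrations were used to interpolate endpoints linearly. TGI is the concentration that stops growth completely.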

Key:
Assay in all cases: NCI anticancer screen, dose series, 48 h
[1] = tested on: LOX IMVI melanoma
[2] = tested on: SK-MEL-5 melanoma
[3] = tested on: SF-539 CNS
[4] = tested on: HS 578T breast
[5] = tested on: MOLT-4 leukemia
[6] = tested on: RPMI-8226 leukemia
[7] = tested on: OVCAR-3 ovarian
[8] = tested on: HT29 colon
[9] = tested on: K-562 leukemia
[10] = tested on: UO-31 renal
[11] = tested on: SNB-75 CNS
[12] = tested on: MCF7 breast
[13] = tested on: M14 melanoma
[14] = tested on: UACC-257 melanoma
[15] = tested on: OVCAR-4 ovarian
[16] = tested on: HCC-2998 colon
[17] = tested on: IGROV1 ovarian
[18] = tested on: HOP-92 NSCLC
[19] = tested on: SW-620 colon
[20] = tested on: ACHN renal
[21] = tested on: OVCAR-8 ovarian
[22] = tested on: UACC-62 melanoma
[23] = tested on: SK-MEL-2 melanoma
[24] = tested on: MDA-MB-231 breast
[25] = tested on: SF-268 CNS
[26] = tested on: SNB-19 CNS
[27] = tested on: OVCAR-5 ovarian
[28] = tested on: NCI-H226 lung
[29] = tested on: HCT-116 colon
[30] = tested on: NCI-H460 lung
[31] = tested on: RXF 393 renal
[32] = tested on: 786-0 renal
[33] = tested on: NCI-H23 lung
[34] = tested on: U251 CNS
[35] = tested on: SK-OV-3 ovarian
[36] = tested on: TK-10 renal
[37] = tested on: BT-549 breast
[38] = tested on: SF-295 CNS
[39] = tested on: HCT-15 colon
[40] = tested on: PC-3 prostate
[41] = tested on: MALME-3M melanoma
[42] = tested on: T-47D breast
[43] = tested on: HL-60(TB) leukemia
[44] = tested on: SR leukemia
[45] = tested on: A549 NSCLC
[46] = tested on: NCI-H522 lung
[47] = tested on: CAKI-1 renal
[48] = tested on: NCI/ADR-RES ovarian
[49] = tested on: EKVX NSCLC
[50] = tested on: CCRF-CEM leukemia
[51] = tested on: KM12 colon
[52] = tested on: MDA-N
[53] = tested on: SN12C renal
[54] = tested on: COLO 205 colon
[55] = tested on: SK-MEL-28 melanoma
[56] = tested on: HOP-62 NSCLC
[57] = tested on: DU-145 prostate
[58] = tested on: A498 renal
[59] = tested on: MDA-MB-435

`CC(=O)O[C@H]1C(=O)[C@@]2(C)[C@H]([C@H](OC(=O)C3CCCCC3)[C@]3(O)C[C@H](OC(=O)[C@H](O)[C@@H](NC(=O)OC(C)(C)C)c4ccccc4)C(C)=C1C3(C)C)[C@]1(OC(C)=O)CO[C@@H]1C[C@@H]2O` showed a TGI [1] greater than 11.9 µM, a TGI [2] greater than 3.99 µM and a TGI [3] of 0.0571 µM. For the same compound, the TGI [4] was 0.741 µM, the TGI [5] was 0.337 µM and the TGI [6] was 0.432 µM. The TGI [7] was 0.019 µM, the TGI [8] was greater than 6.33 µM and the TGI [9] was greater than 12.5 µM. It also gave a TGI [10] greater than 12.5 µM, a TGI [11] greater than 12.5 µM and a TGI [12] of 0.0879 µM. The TGI [13] was 0.117 µM, the TGI [14] was greater than 12.5 µM and the TGI [15] was greater than 12.5 µM. It also gave a TGI [16] of 0.248 µM, a TGI [17] greater than 12.5 µM and a TGI [18] of 0.575 µM. The TGI [19] was greater than 12.5 µM, the TGI [20] was greater than 12.5 µM and the TGI [21] was greater than 12.5 µM. It also gave a TGI [22] greater than 2.47 µM, a TGI [23] of 5.15 µM and a TGI [24] greater than 6.31 µM. The TGI [25] was greater than 12.5 µM, the TGI [26] was greater than 12.5 µM and the TGI [27] was 0.0701 µM. It also gave a TGI [28] greater than 12.5 µM, a TGI [29] greater than 4.97 µM and a TGI [30] greater than 5.2 µM. The TGI [31] was 2.15 µM, the TGI [32] was greater than 7.61 µM and the TGI [33] was greater than 9.76 µM. The TGI [34] was greater than 12.5 µM, the TGI [35] was greater than 12.5 µM and the TGI [36] was greater than 10.1 µM. For the same compound, the TGI [37] was 0.46 µM, the TGI [38] was 0.165 µM and the TGI [39] was greater than 12.5 µM. The TGI [40] was greater than 12.5 µM, the TGI [41] was 5.07 µM and the TGI [42] was greater than 12.5 µM. For the same compound, the TGI [43] was 0.00365 µM, the TGI [44] was greater than 12.5 µM and the TGI [45] was greater than 12.5 µM. The TGI [46] was 0.22 µM, the TGI [47] was greater than 12.5 µM and the TGI [48] was greater than 5.94 µM. It also gave a TGI [49] greater than 12.5 µM, a TGI [50] greater than 8.82 µM and a TGI [51] greater than 12.5 µM. It also gave a TGI [52] of 0.0173 µM, a TGI [53] greater than 11.5 µM and a TGI [54] of 0.144 µM. It also gave a TGI [55] greater than 9.82 µM.

Work on `O=c1ccc2[n+]([O-])c3ccc(O)cc3oc-2c1` yielded a TGI [1] of 13.8 µM, a TGI [2] of 13.8 µM and a TGI [3] greater than 100 µM. The TGI [4] was greater than 54.1 µM, the TGI [5] was 57 µM and the TGI [6] was greater than 87 µM. For the same compound, the TGI [7] was greater than 80.3 µM, the TGI [56] was 67 µM and the TGI [8] was 53.9 µM. The TGI [9] was greater than 100 µM, the TGI [10] was 8 µM and the TGI [11] was greater than 40.7 µM. The TGI [12] was 18.8 µM, the TGI [13] was 25.4 µM and the TGI [14] was 26 µM. It also gave a TGI [15] of 97 µM, a TGI [16] greater than 100 µM and a TGI [17] greater than 100 µM. It also gave a TGI [18] greater than 100 µM, a TGI [19] of 48 µM and a TGI [20] greater than 37.7 µM. It also gave a TGI [21] greater than 91.6 µM, a TGI [22] of 7.35 µM and a TGI [23] of 31.5 µM. The TGI [24] was greater than 92.3 µM, the TGI [25] was greater than 100 µM and the TGI [27] was 56.6 µM. For the same compound, the TGI [28] was greater than 66.8 µM, the TGI [29] was greater than 100 µM and the TGI [30] was 38.7 µM. It also gave a TGI [31] greater than 100 µM, a TGI [32] of 27.2 µM and a TGI [33] of 11.4 µM. For the same compound, the TGI [57] was 30.8 µM, the TGI [34] was greater than 100 µM and the TGI [35] was greater than 100 µM. The TGI [36] was greater than 85.2 µM, the TGI [37] was 25.9 µM and the TGI [38] was 21.6 µM. It also gave a TGI [39] greater than 47.9 µM, a TGI [40] greater than 100 µM and a TGI [41] of 18.3 µM. For the same compound, the TGI [42] was greater than 100 µM, the TGI [43] was greater than 66.8 µM and the TGI [44] was greater than 64 µM. It also gave a TGI [45] of 20.6 µM, a TGI [46] of 36.6 µM and a TGI [58] greater than 100 µM. It also gave a TGI [47] greater than 100 µM, a TGI [48] of 67.5 µM and a TGI [49] greater than 100 µM. It also gave a TGI [50] greater than 73 µM, a TGI [51] greater than 100 µM and a TGI [52] of 3.37 µM. For the same compound, the TGI [53] was 36.7 µM, the TGI [54] was 30.1 µM and the TGI [55] was 22.6 µM.

With `COc1nc(=O)n(C2CC(F)C(CO)O2)cc1C` (stereo not drawn) the TGI [1] was greater than 100 µM, the TGI [2] was greater than 100 µM and the TGI [3] was greater than 100 µM. The TGI [4] was greater than 100 µM, the TGI [5] was greater than 100 µM and the TGI [6] was greater than 100 µM. It also gave a TGI [7] greater than 100 µM, a TGI [56] greater than 100 µM and a TGI [8] greater than 100 µM. It also gave a TGI [9] greater than 100 µM, a TGI [10] greater than 100 µM and a TGI [12] greater than 100 µM. It also gave a TGI [13] greater than 100 µM, a TGI [14] greater than 100 µM and a TGI [15] greater than 100 µM. The TGI [16] was greater than 100 µM, the TGI [17] was greater than 100 µM and the TGI [19] was greater than 100 µM. For the same compound, the TGI [20] was greater than 100 µM, the TGI [21] was greater than 100 µM and the TGI [22] was greater than 100 µM. It also gave a TGI [24] greater than 100 µM, a TGI [25] greater than 100 µM and a TGI [26] greater than 100 µM. The TGI [28] was greater than 100 µM, the TGI [29] was greater than 100 µM and the TGI [30] was greater than 100 µM. The TGI [32] was greater than 100 µM, the TGI [33] was greater than 100 µM and the TGI [57] was greater than 100 µM. The TGI [34] was greater than 100 µM, the TGI [36] was greater than 100 µM and the TGI [37] was greater than 100 µM. It also gave a TGI [38] greater than 100 µM, a TGI [39] greater than 100 µM and a TGI [41] greater than 100 µM. The TGI [42] was greater than 100 µM, the TGI [43] was greater than 100 µM and the TGI [44] was greater than 100 µM. For the same compound, the TGI [45] was greater than 100 µM, the TGI [46] was greater than 100 µM and the TGI [47] was greater than 100 µM. The TGI [59] was greater than 100 µM, the TGI [48] was greater than 100 µM and the TGI [49] was greater than 100 µM. It also gave a TGI [50] greater than 100 µM, a TGI [51] greater than 100 µM and a TGI [52] greater than 100 µM. The TGI [53] was greater than 100 µM, the TGI [54] was greater than 100 µM and the TGI [55] was greater than 100 µM.
